System: cell lines derived from mouse pancreatic β-cells
Experiment: Insulin secretion into the culture medium measured by ELISA
Assay type: cell-based
Conditions: low- and high-glucose Ringer's solutions; 1 μg/mL or 10 μg/mL (any concentration); stimulated for 30 minutes
Protocol: Low- and high-glucose Ringer's solutions in the presence of 10 μg/mL pentadecanoic acid triglyceride were added in vitro to cell lines derived from mouse pancreatic β-cells. The cells were then stimulated for 30 minutes.
Separately, as a control, ethanol at concentration of 0.1% (v/v) were added to the cells.
Insulin secreted into the culture medium was measured by ELISA.
Low- and high-glucose Ringer's solutions in the presence of 1 μg/mL or 10 μg/mL pentadecanoic acid (PA in the Figure) were added in vitro to cell lines derived from mouse pancreatic β-cells. The cells were then stimulated for 30 minutes.

CCCCCCCCCCCCCCC(=O)O [pentadecanoic acid]
effect on insulin secretion: no effect

From US12485103B2, “Insulin secretion-promoting agent and blood sugar level improver using same, diabetes improver, and food” (REFINE HOLDINGS CO., LTD., priority 2019, dated 2025)
